Laboratory results from patent US20240209027A1, “PEPTIDE AND PEPTIDE-CONTAINING COMPOSITION” (PeptiAID Inc.,, priority 2021, published 2024).
Starred links: 1 amine or outer side, 2 acyl side, 3 side chain; linkers in the order of their positions; H or OH if unused. Positions of bridges follow the written chain, without caps; N, C: chain ends. Non-standard residues stand in square brackets, D forms with d. Residues, ends and D or L forms follow the SMILES beside them. ξ: configuration not given here. *: point of attachment. X5 = O=C(O)CCCCCCCCCCCCC(=O)N[C@@H](CCC(=O)N[C@@H](CCCCN*)C(=O)O)C(=O)O; X4 = O=C(O)CCCCCCCCCCC(=O)N[C@@H](CCC(=O)N[C@@H](CCCCN*)C(=O)O)C(=O)O; X6 = O=C(O)CCCCCCCCC(=O)N[C@@H](CCC(=O)N[C@@H](CCCCN*)C(=O)O)C(=O)O; Ala(piperidin-4-yl) = O=C([C@H](CC1CCN([*:3])CC1)N[*:1])[*:2]; Ala(indan-2-yl) = N[C@@H](CC1Cc2ccccc2C1)C(=O)O; Phe(4-COOH) = N[C@@H](Cc1ccc(C(=O)O)cc1)C(=O)O; Phe(4-F) = N[C@@H](Cc1ccc(F)cc1)C(=O)O; C12 diacid = O=C(O)CCCCCCCCCCC(=O)*; 3Pal = N[C@@H](Cc1cccnc1)C(=O)O; NMeE = CN[C@@H](CCC(=O)O)C(=O)O; Cha = N[C@@H](CC1CCCCC1)C(=O)O; Cit = NC(=O)NCCC[C@H](N)C(=O)O; NMeNle = CCCC[C@H](NC)C(=O)O; ξαMeS = CC(N)(CO)C(=O)O; PEG2 = NCCOCCOCCC(=O)O; Aib = CC(C)(N)C(=O)O

Test system: SARS-CoV-2-derived S protein, Delta strain
Assay type: cell-based
Settings: Table 12

CCCC[C@H]1C(=O)NC(C)(C)C(=O)N[C@@H](CC2CCCCC2)C(=O)N[C@@H](Cc2ccc(F)cc2)C(=O)N[C@H](CC(=O)O)C(=O)N[C@@H](Cc2ccc(O)cc2)C(=O)N[C@@H](Cc2ccc(O)cc2)C(=O)N[C@@H](CCCNC(N)=O)C(=O)N[C@H](CCCCN)C(=O)N[C@@H](CC2CCCCC2)C(=O)N[C@H](C(=O)N[C@H](CCC(=O)O)C(=O)NCCOCCOCCC(=O)N[C@H](CCCCNC(=O)CCCCCCCCCCC(=O)O)C(N)=O)CSCC(=O)N(C)[C@@H](CCC(=O)O)C(=O)N1C [Peptide 5555_p227] ({CH2CO}-[NMeE][NMeNle][Aib][Cha][Phe(4-F)][dD]YY[Cit][dK][Cha]C[dE][PEG2][dK](C12 diacid)-NH2; thioether N-12)
IC50: 1.9 nM
Imax: % (at 500 nM): 100%

CCCC[C@H]1C(=O)NC(C)(C)C(=O)N[C@@H](CC2CCCCC2)C(=O)N[C@@H](Cc2ccc(F)cc2)C(=O)N[C@H](CC(=O)O)C(=O)N[C@@H](Cc2ccc(O)cc2)C(=O)N[C@@H](Cc2ccc(O)cc2)C(=O)N[C@@H](Cc2ccc(C(=O)O)cc2)C(=O)N[C@@H](CC2CCNCC2)C(=O)N[C@@H](CC2CCCCC2)C(=O)N[C@H](C(=O)N[C@H](CCC(=O)O)C(N)=O)CSCC(=O)N[C@@H](Cc2cccnc2)C(=O)N1C [Peptide 5555_p195] ({CH2CO}-[3Pal][NMeNle][Aib][Cha][Phe(4-F)][dD]YY[Phe(4-COOH)][Ala(piperidin-4-yl)][Cha]C[dE]-NH2; thioether N-12)
IC50: 2.3 nM
Imax: % (at 500 nM): 101%

CCCC[C@H]1C(=O)NC(C)(C)C(=O)N[C@@H](CC2CCCCC2)C(=O)N[C@@H](Cc2ccc(F)cc2)C(=O)N[C@H](CC(=O)O)C(=O)N[C@@H](Cc2ccc(O)cc2)C(=O)N[C@@H](Cc2ccc(O)cc2)C(=O)N[C@@H](CCCNC(N)=O)C(=O)N[C@H](CCCCN)C(=O)N[C@@H](CC2CCCCC2)C(=O)N[C@H](C(=O)N[C@H](CCC(=O)O)C(=O)NCCCC[C@H](NC(=O)CC[C@H](NC(=O)CCCCCCCCCCC(=O)O)C(=O)O)C(=O)O)CSCC(=O)N(C)[C@@H](CCC(=O)O)C(=O)N1C [Peptide 5555_p234] ({CH2CO}-[NMeE][NMeNle][Aib][Cha][Phe(4-F)][dD]YY[Cit][dK][Cha]C[dE]-X4; thioether N-12)
IC50: 5.9 nM
Imax: % (at 500 nM): 99%

CCCC[C@H]1C(=O)NC(C)(C)C(=O)N[C@@H](CC2Cc3ccccc3C2)C(=O)N[C@@H](Cc2ccc(F)cc2)C(=O)N2CCC[C@H]2C(=O)N[C@@H](Cc2ccc(O)cc2)C(=O)N[C@@H](Cc2ccc(O)cc2)C(=O)N[C@@H](Cc2ccc(C(=O)O)cc2)C(=O)N[C@@H](CC2CCNCC2)C(=O)N[C@@H](CC2CCCCC2)C(=O)N[C@H](C(=O)N[C@H](CCC(=O)O)C(N)=O)CSCC(=O)N(C)[C@@H](CCC(=O)O)C(=O)N1C [Peptide 5555_p201] ({CH2CO}-[NMeE][NMeNle][Aib][Ala(indan-2-yl)][Phe(4-F)]PYY[Phe(4-COOH)][Ala(piperidin-4-yl)][Cha]C[dE]-NH2; thioether N-12)
IC50: 0.7 nM
Imax: % (at 500 nM): 101%

CCCC[C@H]1C(=O)NC(C)(C)C(=O)N[C@@H](CC2CCCCC2)C(=O)N[C@@H](Cc2ccc(F)cc2)C(=O)N[C@H](CC(=O)O)C(=O)N[C@@H](Cc2ccc(O)cc2)C(=O)N[C@@H](Cc2ccc(O)cc2)C(=O)N[C@@H](CCCNC(N)=O)C(=O)N[C@H](CCCCN)C(=O)N[C@@H](CC2CCCCC2)C(=O)N[C@H](C(=O)N[C@H](CCC(=O)O)C(=O)NCCCC[C@H](NC(=O)CC[C@H](NC(=O)CCCCCCCCC(=O)O)C(=O)O)C(=O)O)CSCC(=O)N(C)[C@@H](CCC(=O)O)C(=O)N1C [Peptide 5555_p233] ({CH2CO}-[NMeE][NMeNle][Aib][Cha][Phe(4-F)][dD]YY[Cit][dK][Cha]C[dE]-X6; thioether N-12)
IC50: 4.2 nM
Imax: % (at 500 nM): 99%

CCCC[C@H]1C(=O)NC(C)(C)C(=O)N[C@@H](CC2CCCCC2)C(=O)N[C@@H](Cc2ccc(F)cc2)C(=O)NC(C)(CO)C(=O)N[C@@H](Cc2ccc(O)cc2)C(=O)N[C@@H](Cc2ccc(O)cc2)C(=O)N[C@@H](Cc2ccc(C(=O)O)cc2)C(=O)N[C@@H](CC2CCNCC2)C(=O)N[C@@H](CC2CCCCC2)C(=O)N[C@H](C(=O)N[C@H](CCC(=O)O)C(N)=O)CSCC(=O)N(C)[C@@H](CCC(=O)O)C(=O)N1C (some centres unmarked) [Peptide 5555_p203] ({CH2CO}-[NMeE][NMeNle][Aib][Cha][Phe(4-F)][ξαMeS]YY[Phe(4-COOH)][Ala(piperidin-4-yl)][Cha]C[dE]-NH2; thioether N-12)
IC50: 0.5 nM
Imax: % (at 500 nM): 101%

CCCC[C@H]1C(=O)NC(C)(C)C(=O)N[C@@H](CC2CCCCC2)C(=O)N[C@@H](Cc2ccc(F)cc2)C(=O)NC(C)(CO)C(=O)N[C@@H](Cc2ccc(O)cc2)C(=O)N[C@@H](Cc2ccc(O)cc2)C(=O)N[C@@H](CCCNC(N)=O)C(=O)N[C@H](CCCCN)C(=O)N[C@@H](CC2CCCCC2)C(=O)N[C@H](C(=O)N[C@H](CCC(=O)O)C(N)=O)CSCC(=O)N(C)[C@@H](CCC(=O)O)C(=O)N1C (some centres unmarked) [Peptide 5555_p218] ({CH2CO}-[NMeE][NMeNle][Aib][Cha][Phe(4-F)][ξαMeS]YY[Cit][dK][Cha]C[dE]-NH2; thioether N-12)
IC50: 0.3 nM
Imax: % (at 500 nM): 101%

CCCC[C@H]1C(=O)NC(C)(C)C(=O)N[C@@H](CC2CCCCC2)C(=O)N[C@@H](Cc2ccc(F)cc2)C(=O)N[C@H](CC(=O)O)C(=O)N[C@@H](Cc2ccc(O)cc2)C(=O)N[C@@H](Cc2ccc(O)cc2)C(=O)N[C@@H](CCCNC(N)=O)C(=O)N[C@H](CCCCN)C(=O)N[C@@H](CC2CCCCC2)C(=O)N[C@H](C(=O)N[C@H](CCC(=O)O)C(=O)NCCCC[C@H](NC(=O)CC[C@H](NC(=O)CCCCCCCCCCCCC(=O)O)C(=O)O)C(=O)O)CSCC(=O)N(C)[C@@H](CCC(=O)O)C(=O)N1C [Peptide 5555_p235] ({CH2CO}-[NMeE][NMeNle][Aib][Cha][Phe(4-F)][dD]YY[Cit][dK][Cha]C[dE]-X5; thioether N-12)
IC50: 7 nM
Imax: % (at 500 nM): 99%

CCCC[C@H]1C(=O)NC(C)(C)C(=O)N[C@@H](CC2Cc3ccccc3C2)C(=O)N[C@@H](Cc2ccc(F)cc2)C(=O)N[C@H](CC(=O)O)C(=O)N[C@@H](Cc2ccc(O)cc2)C(=O)N[C@@H](Cc2ccc(O)cc2)C(=O)N[C@@H](CCCNC(N)=O)C(=O)N[C@H](CCCCN)C(=O)N[C@@H](CC2CCCCC2)C(=O)N[C@H](C(=O)N[C@H](CCC(=O)O)C(N)=O)CSCC(=O)N[C@@H](Cc2cccnc2)C(=O)N1C [Peptide 5555_p178] ({CH2CO}-[3Pal][NMeNle][Aib][Ala(indan-2-yl)][Phe(4-F)][dD]YY[Cit][dK][Cha]C[dE]-NH2; thioether N-12)
IC50: 1.9 nM
Imax: % (at 500 nM): 100%

CCCC[C@H]1C(=O)NC(C)(C)C(=O)N[C@@H](CC2CCCCC2)C(=O)N[C@@H](Cc2ccc(F)cc2)C(=O)N2CCC[C@H]2C(=O)N[C@@H](Cc2ccc(O)cc2)C(=O)N[C@@H](Cc2ccc(O)cc2)C(=O)N[C@@H](CCCNC(N)=O)C(=O)N[C@H](CCCCN)C(=O)N[C@@H](CC2CCCCC2)C(=O)N[C@H](C(=O)N[C@H](CCC(=O)O)C(N)=O)CSCC(=O)N(C)[C@@H](CCC(=O)O)C(=O)N1C [Peptide 5555_p188] ({CH2CO}-[NMeE][NMeNle][Aib][Cha][Phe(4-F)]PYY[Cit][dK][Cha]C[dE]-NH2; thioether N-12)
IC50: 0.4 nM
Imax: % (at 500 nM): 101%
